Literature values in patent US6777573B1, “Method for the synthesis of ceralure B1” (The United States of America as represented by the …, priority 2002, dated 2004).
“Also recorded” adds a separate entry of the source.

System: Ceratitis capitata (Mediterranean fruit fly, medfly)

CCOC(=O)C1CC(I)CCC1C (mixture of isomers) [ceralure B1, ethyl cis,trans-5-iodo-2-methylcyclohexane-1-carboxylate]
relative attractiveness among ceralure isomers (isomers separated by HPLC, study of 4 trans isomers (Warthen et al. 1994)): most active isomer; also recorded: superior to the other three isomers

CCOC(=O)C1CC(I)CCC1C (single isomer, unassigned; (-)) [(−)ceralure B1, reference compound]
higher attractancy than the racemate (optically active form versus racemic ceralure B1 (Raw et al.)): about 30%
